Measurements: ChEMBL document CHEMBL5604063, “ASAP - DENV-2 NS2B-NS3 protease fluorescence dose response” (2024)
pIC50: −log10 of the molar value. Several values for one entry are separate records, joined by “and”; a condition that tells them apart may be missing. Identical values can stand only once.

Tests used:
Genome polyprotein [1] = target: T1, Genome polyprotein (dengue virus type 2, UniProt P29990); assay type: functional, Thailand/16681/1984
Genome polyprotein [2] = target: T1, Genome polyprotein; assay type: functional, Thailand/16681/1984; remark: listed apart in the source

T1 sequence (P29990 1346-1475 limits assumed): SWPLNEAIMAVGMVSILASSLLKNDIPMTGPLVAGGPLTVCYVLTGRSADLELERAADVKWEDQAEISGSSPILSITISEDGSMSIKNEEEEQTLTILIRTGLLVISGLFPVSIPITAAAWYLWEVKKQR
T1 sequence (P29990 1476-2093 limits assumed): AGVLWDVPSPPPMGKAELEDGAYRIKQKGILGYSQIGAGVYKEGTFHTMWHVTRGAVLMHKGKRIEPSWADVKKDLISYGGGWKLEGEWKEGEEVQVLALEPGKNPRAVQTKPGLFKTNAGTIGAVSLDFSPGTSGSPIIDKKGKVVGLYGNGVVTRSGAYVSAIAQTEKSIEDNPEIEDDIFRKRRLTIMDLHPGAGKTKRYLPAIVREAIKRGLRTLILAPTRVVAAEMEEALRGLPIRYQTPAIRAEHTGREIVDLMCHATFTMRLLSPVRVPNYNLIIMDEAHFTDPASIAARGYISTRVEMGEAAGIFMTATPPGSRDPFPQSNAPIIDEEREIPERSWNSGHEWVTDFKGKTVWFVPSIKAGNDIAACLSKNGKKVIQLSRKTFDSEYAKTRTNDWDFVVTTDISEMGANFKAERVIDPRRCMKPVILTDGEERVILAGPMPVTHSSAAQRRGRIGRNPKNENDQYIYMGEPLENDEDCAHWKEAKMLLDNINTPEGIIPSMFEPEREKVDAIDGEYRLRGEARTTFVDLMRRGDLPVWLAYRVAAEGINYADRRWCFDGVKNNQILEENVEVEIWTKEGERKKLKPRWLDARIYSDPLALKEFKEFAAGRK

SMILES	pIC50 (Genome polyprotein [1])	pIC50 (Genome polyprotein [2])
Cn1nc([C@H](C#N)Nc2cccc([C@H]3CCOC3)c2)cc1C1CC1	< 4.00	< 4.00
O=C(O)c1ccc(-c2cc(NC(=O)c3cc(F)cc4[nH]ncc34)cc3c2CNC3)cc1	4.12	4.26 and 4.13
CO[C@H]1C[C@H](n2cc3c(C(=O)Nc4ccc5c(c4)CNC5)cc(Cl)cc3n2)C1	< 4.00	< 4.00
O=C(Nc1ccc2c(c1)CNC2)c1cc(F)cc(-c2cn[nH]c2)c1	< 4.00	4.13
O=C(Nc1ccc2c(c1)CNC2)c1cc(F)cc(-c2ccnc3c2CCO3)c1	4.08	< 4.00
COc1ccc(OC)c([C@H]2CCCN2C(=O)Nc2ccc3c(c2)CNC3)c1	< 4.00	< 4.00
Fc1cc(CNc2ccc3c(n2)CNC3)c2cn[nH]c2c1	< 4.00	< 4.00
Cc1c(C(=O)Nc2ccc3c(c2)CCS3(=O)=O)cc(C2CC2)n1C	< 4.00	< 4.00
N#Cc1cccc(-c2nc3c(C(=O)Nc4ccc5c(c4)CNC5)cc(F)cc3[nH]2)c1	5.21 and 5.32	4.96 and 4.53
COC[C@]1(c2nc3c(C(=O)Nc4ccc5c(c4)CNC5)cc(F)cc3[nH]2)CCOC1	< 4.00	< 4.00
CC(=O)N1CCCc2cc(NC(=O)c3cc(C4CC4)n(C)c3C)ccc21	< 4.00	< 4.00
N#Cc1c[nH]c2ccc(C(=O)Nc3ccc4c(c3)CNC4)cc12	< 4.00	< 4.00
Cc1c(C(=O)Nc2cc(-c3cccnc3)ccn2)cnn1C1CC1	< 4.00	< 4.00
CNC(=O)[C@H](Nc1ccc2c(c1)CNC2)c1cc(Cl)cc2[nH]c(-c3ccccc3)nc12	4.30	4.67 and 4.63
CC(C)Cn1cc2c(C(=O)Nc3ccc4c(c3)CNC4)cc(Cl)cc2n1	< 4.00	< 4.00
O=C(Nc1ccc2c(c1)CNC2)c1cc(Cl)cc2nn(C3CCOCC3)cc12	4.04	< 4.00
O=C(NCCCF)[C@H](Nc1ccc2c(c1)CNC2)c1cc(Cl)cc(C2CC2)c1	< 4.00	< 4.00
O=C(Nc1ccc2c(c1)CNC2)c1cc(F)cc(-c2ccc3c(=O)[nH]ncc3c2)c1	4.60 and 4.64	4.44 and 4.47
O=C(Nc1ccc2c(c1)CNC2)c1ccc2ncsc2n1	< 4.00	< 4.00
NC[C@H]1OCCc2sc(C(=O)Nc3cc(-c4cccnc4)ccn3)cc21	< 4.00	< 4.00
CN(C)c1nc(-c2cc(F)cc(C(=O)Nc3ccc4c(c3)CNC4)c2)cs1	< 4.00	< 4.00

SMILES	pIC50 (Genome polyprotein [1])	pIC50 (Genome polyprotein [2])
O=C(Nc1cc([C@H]2CCOC2)ccn1)c1cc(F)cc2[nH]ncc12	< 4.00	< 4.00
CC(C)n1cc(C(=O)Nc2cc(-c3cccnc3)ccn2)cn1	< 4.00	< 4.00
O=C(Nc1ccc2c(c1)CNC2)c1cc(Cl)cc2nn(C3COC3)cc12	< 4.00	< 4.00
Nc1n[nH]c2cc(C(=O)Nc3ccc4c(c3)CNC4)ccc12	< 4.00	< 4.00
CCCn1cc2c(C(=O)Nc3ccc4c(c3)CNC4)cc(Cl)cc2n1	< 4.00	< 4.00
O=C(Nc1cc(-c2cccnc2)ccn1)c1cn2c(n1)CCC2	< 4.00	< 4.00
O=C(Nc1cc([C@H]2CCOC2)ccn1)c1ccc2scnc2c1	< 4.00	< 4.00
CC(C)NC(=O)[C@H](Nc1ccc2c(c1)CN(C)C2(C)C)c1cc(Cl)cc2[nH]ncc12	4.00	4.55
O=C(NCCOCC1CC1)[C@H](Nc1ccc2c(c1)CNC2)c1cc(Cl)cc(C2CC2)c1	< 4.00	< 4.00
CC1(c2nc(C(=O)Nc3cc(-c4cccnc4)ccn3)no2)CC1	< 4.00	< 4.00
COC(=O)c1cc(C(=O)Nc2ccc3c(c2)CNC3)cc2[nH]ccc12	< 4.00	< 4.00
O=C(Nc1ccc2c(c1)CN[C@H]2c1ccccc1)c1cc(F)cc2[nH]ncc12	< 4.00	4.18
O=C1CCc2c(cccc2C(=O)Nc2ccc3c(c2)CNC3)N1	< 4.00	< 4.00
CCCCNC(=O)[C@H](Nc1ccc2c(c1)CNC2)c1cc(Cl)cc(C2CC2)c1	< 4.00	< 4.00
N#Cc1cc2c(cc1NC(=O)c1cc(F)cc3[nH]ncc13)CNC2	4.49 and 4.60	4.79 and 4.49
Cc1c(C(=O)Nc2cc(-c3cccnc3)ccn2)cc(C#N)n1C	4.24	4.27 and 4.21
O=S(=O)(Nc1ccc2c(c1)CNC2)c1cccc2[nH]ncc12	< 4.00	< 4.00
O=C(NCC(F)F)[C@H](Nc1ccc2c(c1)CNC2)c1cc(Br)cc2[nH]ccc12	< 4.00	< 4.00
O=C(Nc1ccc2c(c1)CNC2)c1cccc2c1[C@]1(CCNC1)C(=O)N2	< 4.00	< 4.00
Cc1ncc(-c2cc(F)cc(C(=O)Nc3ccc4c(c3)CNC4)c2)s1	< 4.00	< 4.00
CC1=C(c2cc(F)cc(C(=O)Nc3ccc4c(c3)CNC4)c2)CCCC1	< 4.00	< 4.00
